Data reported in ChEMBL document CHEMBL4339215, “Inhibition of PCSK9D374Y/LDLR Protein-Protein Interaction by Computationally Designed T9 Lupin Peptide” (ACS Med Chem Lett, 2019).
Active and inactive are the calls of the source. The rule behind the calls is not given here.

Legend:
[1] = system: PCSK9/LDLR (Homo sapiens), Q8NBP7+P01130 [D374Y]; assay: Binding affinity to C-terminal His tagged purified recombinant PCSK9 D374Y mutant (unknown origin) expressed in HEK293 cells assessed as reduction in PCSK9/LDLR protein-protein interaction at 100 uM by chemiluminescent assay
[2] = system: PCSK9/LDLR (Homo sapiens), Q8NBP7+P01130 [D374Y]; assay: (§1) Binding affinity to C-terminal His tagged purified recombinant PCSK9 D374Y mutant (unknown origin) expressed in HEK293 cells assessed as dose dependent reduction in PCSK9/LDLR protein-protein interaction at 0.1 uM to 1 mM uM by chemiluminescent assay
[3] = system: PCSK9/LDLR (Homo sapiens), Q8NBP7+P01130 [D374Y]; assay: (§2) Inhibition of C-terminal His tagged purified recombinant PCSK9 D374Y mutant (unknown origin) and LDLR protein-protein interaction expressed in human HepG2 cells assessed as LDL-C uptake level at 10 uM incubated for 2 hrs by fluorescent LDL uptake cell-based assay (42.1 +/- 1.6%); parameters: scale not given: the % may be the effect or the level left
[4] = system: PCSK9/LDLR (Homo sapiens), Q8NBP7+P01130 [D374Y]; assay: (§3) Inhibition of C-terminal His tagged purified recombinant PCSK9 D374Y mutant (unknown origin) and LDLR protein-protein interaction expressed in human HepG2 cells assessed as LDLR protein expression level at cell surface at 10 uM incubated for 2 hrs by in-cell western analysis relative to T9 peptide; assay type: cell-based; parameters: scale not given: the % may be the effect or the level left
PCSK9/LDLR = PCSK9/LDLR (Homo sapiens, UniProt Q8NBP7, D374Y); assay: as §1
Sequence of PCSK9/LDLR (Q8NBP7 whole entry D374Y, looked up): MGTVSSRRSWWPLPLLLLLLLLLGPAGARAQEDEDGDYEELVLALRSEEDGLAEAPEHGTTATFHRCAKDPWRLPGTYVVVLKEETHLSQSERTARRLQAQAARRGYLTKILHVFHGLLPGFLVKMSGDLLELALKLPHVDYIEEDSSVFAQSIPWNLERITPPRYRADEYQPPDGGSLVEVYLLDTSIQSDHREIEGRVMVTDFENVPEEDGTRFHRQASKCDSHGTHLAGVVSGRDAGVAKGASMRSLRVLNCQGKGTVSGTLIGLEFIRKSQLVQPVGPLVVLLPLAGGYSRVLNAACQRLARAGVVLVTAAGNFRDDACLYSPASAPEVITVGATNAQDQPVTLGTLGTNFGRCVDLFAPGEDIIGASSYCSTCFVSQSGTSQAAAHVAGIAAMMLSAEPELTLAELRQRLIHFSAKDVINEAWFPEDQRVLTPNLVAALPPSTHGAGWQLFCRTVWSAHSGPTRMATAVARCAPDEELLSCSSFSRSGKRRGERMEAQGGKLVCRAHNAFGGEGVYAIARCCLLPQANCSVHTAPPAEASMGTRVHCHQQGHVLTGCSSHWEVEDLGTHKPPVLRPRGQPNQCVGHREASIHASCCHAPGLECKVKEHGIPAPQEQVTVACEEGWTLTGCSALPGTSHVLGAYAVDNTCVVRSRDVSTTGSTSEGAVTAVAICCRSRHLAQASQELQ

[5] = system: PCSK9/LDLR (Homo sapiens), Q8NBP7+P01130 [D374Y]; assay: as §2, with “Potency index, ratio of T9 to test compound for inhibition” for “Inhibition”, “assay” for “assay (42.1 +/- 1.6%)”
[6] = system: PCSK9/LDLR (Homo sapiens), Q8NBP7+P01130 [D374Y]; assay: as §3, with “(reference value: 39.6 +/- 0.7%)” for “relative to T9 peptide”; assay type: cell-based; parameters: scale not given: the % may be the effect or the level left

`CC[C@H](C)[C@H](NC(=O)[C@@H](NC(=O)CNC(=O)[C@H](CCC(=O)O)NC(=O)[C@H](C)NC(=O)[C@H](CCC(N)=O)NC(=O)[C@H](Cc1cnc[nH]1)NC(=O)[C@H](CO)NC(=O)[C@H](CCC(N)=O)NC(=O)[C@H](CCC(=O)O)NC(=O)[C@H](CCC(N)=O)NC(=O)CN)C(C)C)C(=O)N[C@H](C(=O)N[C@@H](CCCNC(=N)N)C(=O)O)C(C)C` was tested, and the inhibition [1] was 31.3% and the inhibition [2] was “inactive”.
H-GQRQWKQAEGVMVR-OH was tested, and the Activity [3] was 102%, the Activity [4] was 12.7% and the inhibition [2] was “Dose-dependent effect”. For the same molecule, the IC50 (PCSK9/LDLR) was 148 µM, the Ratio [5] was 35 and the Activity [6] was 83.8%.
